Results published in ChEMBL document CHEMBL4834491, “Novel Compounds for Treating Malaria” (ACS Med Chem Lett, 2021).

Tested on: Plasmodium falciparum
Assay: Antimalarial activity against Plasmodium falciparum assessed as reduction in parasite growth after 72 hrs by LDH assay
Assay type: functional, organism-based

| SMILES | EC50 [nM] |
| --- | --- |
| CC[C@]1(C)CC(=O)N([C@H](c2cncc(F)c2)[C@@H]2C[C@H]2C(=O)N[C@H]2C[C@H](C(F)(F)F)Oc3ccccc32)C(=N)N1 | 0.3 |
| CC[C@]1(C)CC(=O)N([C@H](c2cncc(F)c2)[C@@H]2C[C@H]2C(=O)N[C@H]2CC(C)(C)Oc3ccc(F)cc32)C(=N)N1 | 0.3 |
| CC1(C)CC(=O)N([C@H](c2cncc(Cl)c2)[C@@H]2C[C@H]2C(=O)N[C@H]2C[C@H](C(F)(F)F)Oc3ccccc32)C(=N)N1 | 0.5 |
| CC[C@@]1(C)CC(=O)N([C@H](c2cncc(F)c2)[C@@H]2C[C@H]2C(=O)N[C@H]2CC(C)(C)Oc3ccccc32)C(=N)N1 | 0.6 |
| CCC1(CC)CC(=O)N([C@H](c2cccnc2)[C@@H]2C(C)[C@H]2C(=O)N[C@H]2CC(C)(C)Oc3ccccc32)C(=N)N1 (stereo partly specified) | 0.7 |
| CCC1(CC)CC(=O)N([C@H](CCCC(C)OC)[C@@H]2C[C@H]2C(=O)N[C@H]2CC(C)(C)Oc3ccccc32)C(=N)N1 (stereo partly specified) | 0.7 |
